Measurements: patent US20230346961A1, “GLP-1 AND GIP RECEPTOR CO-AGONISTS” (Novo Nordisk A/S, priority 2020, published 2023)
Like-named read-outs stand apart in the source and are kept apart here. Starred links: 1 amine or outer side, 2 acyl side, 3 side chain; linkers in the order of their positions; H or OH if unused. Non-standard residues stand in square brackets, D forms with d. Residues, ends and D or L forms follow the SMILES beside them. Groups on a side chain read outwards from the residue. *: point of attachment. C20 diacid = O=C(O)CCCCCCCCCCCCCCCCCCC(=O)*; γGlu = O=C(O)[C@H](CCC(=O)[*:2])N[*:1]; εLys = N[C@@H](CCCCN[*:1])C(=O)[*:2]; Trx = NC[C@H]1CC[C@H](C(=O)O)CC1; AEEA = NCCOCCOCC(=O)O; Aib = CC(C)(N)C(=O)O

Columns and labels:
[1] = target: T1, mouse GLP-1 receptor (Mus musculus, UniProt O35659)
T1 sequence (O35659 22-463): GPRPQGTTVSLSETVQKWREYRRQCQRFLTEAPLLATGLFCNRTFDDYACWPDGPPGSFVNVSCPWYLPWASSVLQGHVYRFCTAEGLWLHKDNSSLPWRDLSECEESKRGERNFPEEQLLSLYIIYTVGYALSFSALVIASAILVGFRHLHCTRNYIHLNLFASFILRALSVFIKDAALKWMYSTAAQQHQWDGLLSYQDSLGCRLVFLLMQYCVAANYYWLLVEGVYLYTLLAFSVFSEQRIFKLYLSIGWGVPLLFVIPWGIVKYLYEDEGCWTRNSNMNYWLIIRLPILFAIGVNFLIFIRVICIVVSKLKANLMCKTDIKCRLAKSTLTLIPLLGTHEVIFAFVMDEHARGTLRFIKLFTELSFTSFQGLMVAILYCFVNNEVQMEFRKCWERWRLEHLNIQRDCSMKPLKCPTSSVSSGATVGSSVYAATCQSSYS

[2] = target: human glucagon receptor (Homo sapiens, UniProt P47871); experiment: cell-based
Protocol: (§1) The in vitro functional potency is the measure of target receptor activation in a whole cell assay.
(§2) In vitro functional potency was determined by measuring the response of the target receptor in a reporter gene assay in individual cell lines. […] When the respective receptor is activated, it results in the production of cAMP, which in turn results in expression of the luciferase protein. When assay incubation is completed, luciferase substrate (luciferin) is added resulting in the enzymatic conversion of luciferin to oxyluciferin and producing bioluminescence. The luminescence is measured as the readout for the assay.
(§3) The cells lines used in these assays were BHK cells with BHKTS13 as a parent cell line. The cell lines were derived from a clone containing the CRE luciferase element and were established by further transfection with the respective receptor to obtain the relevant cell line.
(§4) The cells were cultured at 37° C. with 5% CO2 in Cell Culture Medium. They were aliquoted and stored in liquid nitrogen. The cells were kept in continuous culture and were seeded out the day before each assay.
(§5) GLP-1R and GcgR Cell Culture Medium consisted of DMEM medium with 10% FBS, 500 μg/mL G418, and 300 μg/mL hygromycin. GIPR Cell Culture Medium consisted of DMEM medium with 10% FBS, 400 μg/mL G418, and 300 μg/mL hygromycin. Assay Buffer consisted of DMEM w/o phenol red, 10 mM Hepes, 1×Glutamax, 1% ovalbumin, and 0.1% Pluronic F-68 with the addition of HSA at twice the final assay concentration.
(§6) • 1) Cells were plated at 5000 cells/well and incubated overnight in the assay plate. • 2) Cells were washed once in DPBS. • 3) Stocks of the test compounds and reference compounds in concentrations ranging from 100-300 μM were diluted 1:150 in Assay Buffer. Compounds were then diluted 1:10 in column 1 of a 96 deep well dilution plate and then carried across the row creating a 3.5 fold, 12 point dilution curve. • 4) Assay Buffer (50 μl aliquot) with or without HSA was added to each well in the assay plate. • 5) A 50 μl aliquot of compound or blank was transferred from the dilution plate to the assay plate containing the Assay Buffer with or without HSA. • 6) The assay plate was incubated for 3 h in a 5% CO2 incubator at 37° C. 7) The cells were washed once with DPBS. • 8) A 100 μl aliquot of DPBS was added to each well of the assay plate. • 9) A 100 μl aliquot of steadylite plus reagent (light sensitive) was added to each well of the assay plate. • 10) Each assay plate was covered with aluminum foil to protect it from light and shaken at 250 RPM for 30 min at room temperature. • 11) Each assay plate was read in a microtiter plate reader.
(§7) The data from the microtiter plate reader was first regressed in an Excel in order to calculate the x-axis, log scale concentrations based on the individual test compound's stock concentration and the dilutions of the assay. […] The software performs a non-linear regression (log(agonist) vs response). A minimum of two replicates was measured for each sample. The reported values are averages of the replicates.

[3] = target: human GLP-1 receptor (Homo sapiens, UniProt P43220); experiment: cell-based; conditions: hGLP-1R
[4] = Pharmacokinetic study in minipigs (terminal half-life after i.v. administration); format: in vivo; conditions: female, Göttingen, minipig, iv
Protocol: The purpose of this example is to determine the half-life in vivo of the derivatives of the present invention after i.v. administration to minipigs, i.e. the prolongation of their time in the body and thereby their time of action. This is done in a pharmacokinetic (PK) study, where the terminal half-life of the derivative in question is determined. By terminal half-life is generally meant the period of time it takes to […] certain plasma concentration, measured after the initial distribution phase. Female Göttingen minipigs were obtained from Ellegaard Göttingen Minipigs (Dalmose, Denmark) approximately 7-14 months of age and weighing from approximately 16-35 kg were used in the studies. The minipigs were housed individually and fed restrictedly once daily with SDS minipig diet (Special Diets Services, Essex, UK). After at 3 weeks of acclimatisation two permanent central venous catheters were implanted in vena cava caudalis in each animal. The animals were allowed 1 week recovery after the surgery, and were then used for repeated pharmacokinetic studies with a suitable wash-out period between successive derivative dosing. The animals were fasted for approximately 18 hours before dosing and from 0 to 4 hours after dosing, but had adlibitum access to water during the whole period. […] Blood samples (for example 0.8 mL) were collected in 8 mM EDTA buffer and then centrifuged at 4° C. and 1942 g for 10 minutes. Plasma was pipetted into Micronic tubes on dry ice and kept at -20° C. until analysed for plasma concentration of the compounds using ELISA, or a similar antibody-based assay, or LCMS. […] (Pharsight Inc., Mountain View, CA, USA), and the resulting terminal half-lives (harmonic mean) determined.

[5] = target: T2, mouse GIP receptor (Mus musculus, UniProt Q0P543); experiment: cell-based
T2 sequence (Q0P543 19-460): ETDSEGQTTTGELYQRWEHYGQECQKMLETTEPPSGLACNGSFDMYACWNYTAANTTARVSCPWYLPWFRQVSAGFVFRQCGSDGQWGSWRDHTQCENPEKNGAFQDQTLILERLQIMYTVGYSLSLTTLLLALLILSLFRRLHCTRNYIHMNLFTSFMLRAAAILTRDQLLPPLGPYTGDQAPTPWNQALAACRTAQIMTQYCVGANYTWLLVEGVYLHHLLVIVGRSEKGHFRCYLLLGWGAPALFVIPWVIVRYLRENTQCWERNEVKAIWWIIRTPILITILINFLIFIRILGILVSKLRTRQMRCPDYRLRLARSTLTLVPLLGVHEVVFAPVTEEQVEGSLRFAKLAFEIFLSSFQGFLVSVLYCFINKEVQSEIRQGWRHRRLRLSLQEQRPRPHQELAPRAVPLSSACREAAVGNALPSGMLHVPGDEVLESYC
Protocol: as §1, §2, §3, §4, §5, §6, §7

Chain of human GLP-1 receptor (P43220 24-463): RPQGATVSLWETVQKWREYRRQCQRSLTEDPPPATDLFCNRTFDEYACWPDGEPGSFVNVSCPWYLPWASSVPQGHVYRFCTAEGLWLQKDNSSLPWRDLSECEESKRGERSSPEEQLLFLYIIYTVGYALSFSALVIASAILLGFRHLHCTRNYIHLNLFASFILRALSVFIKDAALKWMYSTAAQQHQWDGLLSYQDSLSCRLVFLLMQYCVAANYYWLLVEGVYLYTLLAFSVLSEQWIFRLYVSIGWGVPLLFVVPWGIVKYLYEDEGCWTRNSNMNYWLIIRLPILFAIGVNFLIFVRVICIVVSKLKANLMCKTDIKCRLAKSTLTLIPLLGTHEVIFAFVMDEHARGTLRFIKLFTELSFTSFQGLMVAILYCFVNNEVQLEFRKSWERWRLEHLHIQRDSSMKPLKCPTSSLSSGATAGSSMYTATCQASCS
Chain of human glucagon receptor (P47871 26-477): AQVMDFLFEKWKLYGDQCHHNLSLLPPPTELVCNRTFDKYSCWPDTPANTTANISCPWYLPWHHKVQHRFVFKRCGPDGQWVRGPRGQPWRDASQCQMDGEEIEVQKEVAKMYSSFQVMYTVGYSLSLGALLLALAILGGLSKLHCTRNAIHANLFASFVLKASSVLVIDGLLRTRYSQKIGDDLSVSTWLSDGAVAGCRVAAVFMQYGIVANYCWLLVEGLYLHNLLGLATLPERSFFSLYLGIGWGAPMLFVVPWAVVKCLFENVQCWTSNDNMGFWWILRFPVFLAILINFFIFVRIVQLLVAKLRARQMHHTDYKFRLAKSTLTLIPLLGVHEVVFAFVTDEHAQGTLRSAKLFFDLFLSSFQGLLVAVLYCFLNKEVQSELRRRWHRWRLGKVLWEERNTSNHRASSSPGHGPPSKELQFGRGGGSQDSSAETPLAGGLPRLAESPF

Row | Compound | EC50 [1] [nM] | EC50 [2] [nM] | EC50 ([3]; CRE Luc 0% HSA EC50, 0% HSA) [nM] | EC50 ([3]; CRE Luc 1% HSA EC50, 1% HSA) [nM] | half-life ([4]; in vivo) [h] | EC50 [5] [nM] | half-life ([4]; plasma, minipigs, i.v. administration, harmonic mean, read-out: Terminal half-life t1/2 (converted)) [h]
1 | CC[C@H](C)[C@H](NC(=O)[C@H](CO)NC(=O)[C@H](Cc1ccc(O)cc1)NC(=O)[C@H](CC(=O)O)NC(=O)[C@H](CO)NC(=O)[C@@H](NC(=O)[C@H](Cc1ccccc1)NC(=O)[C@@H](NC(=O)CNC(=O)[C@H](CCC(=O)O)NC(=O)C(C)(C)NC(=O)[C@@H](N)Cc1ccc(O)cc1)[C@@H](C)O)[C@@H](C)O)C(=O)N[C@@H](Cc1ccc(O)cc1)C(=O)N[C@@H](CC(C)C)C(=O)N[C@@H](CCC(=O)O)C(=O)N[C@@H](CCCCNC(=O)COCCOCCNC(=O)COCCOCCNC(=O)CC[C@H](NC(=O)[C@H]1CC[C@H](CNC(=O)CCCCCCCCCCCCCCCCCCC(=O)O)CC1)C(=O)O)C(=O)N[C@@H](CCC(N)=O)C(=O)N[C@@H](C)C(=O)N[C@@H](C)C(=O)NC(C)(C)C(=O)N[C@@H](CCC(=O)O)C(=O)N[C@@H](Cc1ccccc1)C(=O)N[C@H](C(=O)N[C@@H](CC(N)=O)C(=O)N[C@@H](Cc1c[nH]c2ccccc12)C(=O)N[C@@H](CC(C)C)C(=O)N[C@@H](CC(C)C)C(=O)N[C@@H](C)C(=O)NCC(=O)NCC(=O)N1CCC[C@H]1C(=O)N[C@@H](CO)C(=O)N[C@@H](CO)C(=O)NCC(=O)N[C@@H](C)C(=O)N1CCC[C@H]1C(=O)N1CCC[C@H]1C(=O)N1CCC[C@H]1C(=O)N[C@@H](CO)C(N)=O)C(C)C [Compound 21] (H-Y[Aib]EGTFTSDYSIYLEK([AEEA-AEEA-γGlu-Trx-C20 diacid])QAA[Aib]EFVNWLLAGGPSSGAPPPS-NH2; N-terminus assumed) | 0.0026 | > 10 | 0.003 | 0.465 | 62 | 0.0366 | –
2 | CC[C@H](C)[C@H](NC(=O)[C@H](CO)NC(=O)[C@H](Cc1ccc(O)cc1)NC(=O)[C@H](CC(=O)O)NC(=O)[C@H](CO)NC(=O)[C@@H](NC(=O)[C@H](Cc1ccccc1)NC(=O)[C@@H](NC(=O)CNC(=O)[C@H](CCC(=O)O)NC(=O)C(C)(C)NC(=O)[C@@H](N)Cc1ccc(O)cc1)[C@@H](C)O)[C@@H](C)O)C(=O)N[C@@H](Cc1ccc(O)cc1)C(=O)N[C@@H](CC(C)C)C(=O)N[C@@H](CCC(=O)O)C(=O)N[C@@H](CCCCN)C(=O)N[C@@H](CCCCNC(=O)[C@@H](N)CCCCNC(=O)[C@@H](N)CCCCNC(=O)CC[C@H](NC(=O)[C@H]1CC[C@H](CNC(=O)CCCCCCCCCCCCCCCCCCC(=O)O)CC1)C(=O)O)C(=O)N[C@@H](C)C(=O)N[C@@H](C)C(=O)NC(C)(C)C(=O)N[C@@H](CCC(=O)O)C(=O)N[C@@H](Cc1ccccc1)C(=O)N[C@H](C(=O)N[C@@H](CC(N)=O)C(=O)N[C@@H](Cc1c[nH]c2ccccc12)C(=O)N[C@@H](CC(C)C)C(=O)N[C@@H](CC(C)C)C(=O)N[C@@H](C)C(=O)NCC(=O)NCC(=O)N1CCC[C@H]1C(=O)N[C@@H](CO)C(=O)N[C@@H](CO)C(=O)NCC(=O)N[C@@H](C)C(=O)N1CCC[C@H]1C(=O)N1CCC[C@H]1C(=O)N1CCC[C@H]1C(=O)N[C@@H](CO)C(N)=O)C(C)C [Compound 23] (H-Y[Aib]EGTFTSDYSIYLEKK([εLys-εLys-γGlu-Trx-C20 diacid])AA[Aib]EFVNWLLAGGPSSGAPPPS-NH2; N-terminus assumed) | 0.0037 | > 10 | 0.004 | 0.178 | – | 0.0175 | –
3 | CC[C@H](C)[C@H](NC(=O)[C@H](CO)NC(=O)[C@H](Cc1ccc(O)cc1)NC(=O)[C@H](CC(=O)O)NC(=O)[C@H](CO)NC(=O)[C@@H](NC(=O)[C@H](Cc1ccccc1)NC(=O)[C@@H](NC(=O)CNC(=O)[C@H](CCC(=O)O)NC(=O)C(C)(C)NC(=O)[C@@H](N)Cc1ccc(O)cc1)[C@@H](C)O)[C@@H](C)O)C(=O)N[C@@H](Cc1ccc(O)cc1)C(=O)N[C@@H](CC(C)C)C(=O)N[C@@H](CCC(=O)O)C(=O)N[C@@H](CCC(=O)O)C(=O)N[C@@H](CCC(N)=O)C(=O)N[C@@H](C)C(=O)N[C@@H](C)C(=O)NC(C)(C)C(=O)N[C@@H](CCCCNC(=O)[C@@H](N)CCCCNC(=O)[C@@H](N)CCCCNC(=O)CC[C@H](NC(=O)CCCCCCCCCCCCCCCCCCC(=O)O)C(=O)O)C(=O)N[C@@H](Cc1ccccc1)C(=O)N[C@H](C(=O)N[C@@H](CC(N)=O)C(=O)N[C@@H](Cc1c[nH]c2ccccc12)C(=O)N[C@@H](CC(C)C)C(=O)N[C@@H](CC(C)C)C(=O)N[C@@H](C)C(=O)NCC(=O)NCC(=O)N1CCC[C@H]1C(=O)N[C@@H](CO)C(=O)N[C@@H](CO)C(=O)NCC(=O)N[C@@H](C)C(=O)N1CCC[C@H]1C(=O)N1CCC[C@H]1C(=O)N1CCC[C@H]1C(=O)N[C@@H](CO)C(N)=O)C(C)C [Compound 27] (H-Y[Aib]EGTFTSDYSIYLEEQAA[Aib]K([εLys-εLys-γGlu-C20 diacid])FVNWLLAGGPSSGAPPPS-NH2; N-terminus assumed) | 0.0042 | – | 0.0033 | 0.195 | 88 | 0.545 | –
4 | CC[C@H](C)[C@H](NC(=O)[C@H](CO)NC(=O)[C@H](Cc1ccc(O)cc1)NC(=O)[C@H](CC(=O)O)NC(=O)[C@H](CO)NC(=O)[C@@H](NC(=O)[C@H](Cc1ccccc1)NC(=O)[C@@H](NC(=O)CNC(=O)[C@H](CCC(=O)O)NC(=O)C(C)(C)NC(=O)[C@@H](N)Cc1ccc(O)cc1)[C@@H](C)O)[C@@H](C)O)C(=O)N[C@@H](Cc1ccc(O)cc1)C(=O)N[C@@H](CC(C)C)C(=O)N[C@@H](CCC(=O)O)C(=O)N[C@@H](CCCCN)C(=O)N[C@@H](CCCCNC(=O)[C@@H](N)CCCCNC(=O)[C@@H](N)CCCCNC(=O)CC[C@H](NC(=O)CCCCCCCCCCCCCCCCCCC(=O)O)C(=O)O)C(=O)N[C@@H](C)C(=O)N[C@@H](C)C(=O)NC(C)(C)C(=O)N[C@@H](CCC(=O)O)C(=O)N[C@@H](Cc1ccccc1)C(=O)N[C@H](C(=O)N[C@@H](CCC(N)=O)C(=O)N[C@@H](Cc1c[nH]c2ccccc12)C(=O)N[C@@H](CC(C)C)C(=O)N[C@@H](CC(C)C)C(=O)N[C@@H](CCC(=O)O)C(=O)NCC(=O)NCC(=O)N1CCC[C@H]1C(=O)N[C@@H](CO)C(=O)N[C@@H](CO)C(=O)NCC(=O)N[C@@H](C)C(=O)N1CCC[C@H]1C(=O)N1CCC[C@H]1C(=O)N1CCC[C@H]1C(=O)N[C@@H](CO)C(N)=O)C(C)C [Compound 35] (H-Y[Aib]EGTFTSDYSIYLEKK([εLys-εLys-γGlu-C20 diacid])AA[Aib]EFVQWLLEGGPSSGAPPPS-NH2; N-terminus assumed) | 0.0013 | – | 0.0022 | 0.169 | – | 0.0213 | 90
